For the experiment, the target named is T1, Chk1 (Homo sapiens, UniProt O14757).
T1 construct: purchased BPS 40039
T1 sequence (O14757 1-476): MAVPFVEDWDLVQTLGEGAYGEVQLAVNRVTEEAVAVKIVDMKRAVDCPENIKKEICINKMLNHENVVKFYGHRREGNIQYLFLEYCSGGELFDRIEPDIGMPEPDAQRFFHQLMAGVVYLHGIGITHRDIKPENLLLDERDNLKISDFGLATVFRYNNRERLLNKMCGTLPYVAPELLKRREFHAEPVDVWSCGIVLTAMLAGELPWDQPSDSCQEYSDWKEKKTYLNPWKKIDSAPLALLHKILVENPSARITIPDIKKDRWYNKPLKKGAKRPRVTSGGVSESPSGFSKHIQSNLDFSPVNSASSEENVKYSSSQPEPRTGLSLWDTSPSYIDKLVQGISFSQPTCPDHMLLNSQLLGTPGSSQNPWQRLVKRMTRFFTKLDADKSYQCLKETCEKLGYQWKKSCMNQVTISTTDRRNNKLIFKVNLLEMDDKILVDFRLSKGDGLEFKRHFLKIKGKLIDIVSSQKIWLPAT
In words: biochemical. To be noted: ADP-Glo; read-out: Chk1 in vitro enzyme activity (grade). For orientation: ADP-Glo first removes unused ATP, then detects ADP through luciferase.

`COc1cc(F)cc(OCCCN)c1-c1cc(Nc2cnc(C#N)cn2)n[nH]1` [Compound 3, 5-(5-(2-(3-Aminopropoxy)-4-fluoro-6-methoxyphenyl)-1H-pyrazol-3-ylamino)pyrazine-2-carbonitrile]: the IC50 is at most 1 nM.

(Values after patent publication US11116767B2, “3,5-disubstituted pyrazoles useful as checkpoint kinase 1 (Chk1) inhibitors, and their preparations and applications” (PHARMAENGINE, INC., priority 2016, dated 2021).)
